Data reported in BigSolDB 2.1.

CN(C)Cc1c[nH]c2ccccc12
solubility (mole fraction)
Conditions | 273.15 K | 278.15 K | 283.15 K | 288.15 K | 293.15 K | 298.15 K | 303.15 K | 308.15 K | 313.15 K
in 1,4-dioxane | – | – | – | 0.0465 | 0.0511 | 0.0562 | 0.0623 | 0.0684 | 0.0746
in acetone | 0.0231 | 0.026 | 0.0289 | 0.0327 | 0.0364 | 0.0402 | 0.0463 | 0.0523 | 0.0584
in acetonitrile | 0.00447 | 0.00517 | 0.00621 | 0.00736 | 0.00858 | 0.00998 | 0.0116 | 0.0133 | 0.0151
in ethanol | 0.0207 | 0.023 | 0.0254 | 0.0283 | 0.0317 | 0.0355 | 0.0399 | 0.0449 | 0.0508
in ethyl acetate | 0.0165 | 0.0193 | 0.0219 | 0.0253 | 0.029 | 0.0327 | 0.0377 | 0.0428 | 0.0479
in isopropanol | 0.013 | 0.0153 | 0.0178 | 0.0207 | 0.0235 | 0.0268 | 0.0305 | 0.0341 | 0.0377
in methanol | 0.0274 | 0.0293 | 0.0315 | 0.0341 | 0.0371 | 0.0417 | 0.0474 | 0.0537 | 0.0615
in n-butanol | 0.0305 | 0.0337 | 0.0369 | 0.0416 | 0.0464 | 0.0512 | 0.0565 | 0.0617 | 0.067
in n-octanol | 0.0111 | 0.0132 | 0.0158 | 0.0187 | 0.0218 | 0.025 | 0.0284 | 0.0319 | 0.036
in n-propanol | 0.0284 | 0.0315 | 0.0346 | 0.0381 | 0.0415 | 0.046 | 0.0515 | 0.0581 | 0.0629
in toluene | 0.00345 | 0.00408 | 0.00456 | 0.00537 | 0.00647 | 0.00765 | 0.00905 | 0.0107 | 0.0126
